Laboratory results as given in patent US9040233B2 (priority 2007, dated 2015).
Where two headings read alike, the source gives them in different places.

Test system: CD8+ T cells
Assay type: cell-based, human

## CC(C)[C@H](NC(=O)[C@H](Cc1ccccc1)NC(=O)[C@H](CCCNC(=N)N)NC(=O)[C@H](C)NC(=O)[C@H](Cc1c[nH]cn1)NC(=O)[C@H](C)NC(=O)[C@H](C)N)C(=O)N[C@@H](C)C(=O)N[C@@H](C)C(=O)O
Donor D454 (LTBI)
  # SFU: 88 SFU/250,000 CD8+ T cells

## CSCC[C@H](NC(=O)[C@H](CCC(=O)O)NC(=O)[C@H](C)N)C(=O)N[C@@H](CCCCN)C(=O)N[C@H](C(=O)N[C@@H](CC(=O)O)C(=O)N[C@@H](C)C(=O)N[C@@H](C)C(=O)O)[C@@H](C)O
Donor D466 (active TB)
  # SFU: 2458 SFU/250,000 CD8+ T cells

## CSCC[C@H](NC(=O)[C@H](CCC(=O)O)NC(=O)[C@H](C)N)C(=O)N[C@@H](CCCCN)C(=O)N[C@H](C(=O)N[C@@H](CC(=O)O)C(=O)N[C@@H](C)C(=O)N[C@@H](C)C(=O)N[C@H](C(=O)N[C@@H](CC(C)C)C(=O)N[C@@H](C)C(=O)O)[C@@H](C)O)[C@@H](C)O
  # SFU: 1993 SFU/250,000 CD8+ T cells

## CC(C)C[C@H](NC(=O)[C@H](Cc1ccc(O)cc1)NC(=O)[C@H](CO)NC(=O)[C@H](CCC(N)=O)NC(=O)[C@H](C)NC(=O)[C@@H](NC(=O)[C@@H]1CCCN1C(=O)[C@H](CO)NC(=O)[C@H](C)N)C(C)C)C(=O)O
Donor D432 (active TB)
  # SFU: 210 SFU/250,000 CD8+ T cells

## CC[C@H](C)[C@H](NC(=O)[C@@H](NC(=O)[C@H](C)N)C(C)C)C(=O)N[C@@H](CC(N)=O)C(=O)N[C@H](C(=O)N[C@H](C(=O)N[C@@H](CS)C(=O)N[C@@H](CC(N)=O)C(=O)N[C@@H](Cc1ccc(O)cc1)C(=O)NCC(=O)N[C@@H](CCC(N)=O)C(=O)O)[C@@H](C)O)[C@@H](C)O
Donor D454 (LTBI)
  # SFU: 24 SFU/250,000 CD8+ T cells

## CSCC[C@H](NC(=O)[C@@H](N)CCC(=O)O)C(=O)N[C@@H](CCCCN)C(=O)N[C@H](C(=O)N[C@@H](CC(=O)O)C(=O)N[C@@H](C)C(=O)N[C@@H](C)C(=O)N[C@H](C(=O)N[C@@H](CC(C)C)C(=O)O)[C@@H](C)O)[C@@H](C)O
Donor D480 (active TB)
  # SFU: 387 SFU/250,000 CD8+ T cells

## CC[C@H](C)[C@H](NC(=O)[C@H](Cc1c[nH]cn1)NC(=O)[C@H](C)NC(=O)[C@H](CC(=O)O)NC(=O)[C@H](CC(C)C)NC(=O)[C@@H](N)CC(C)C)C(=O)N1CCC[C@H]1C(=O)N[C@@H](CCC(N)=O)C(=O)N[C@@H](CC(C)C)C(=O)O
Donor D504 (LTBI)
  # SFU: <10 SFU/250,000 CD8+ T cells

## CC[C@H](C)[C@H](NC(=O)[C@@H](N)CC(N)=O)C(=O)N[C@@H](CCCNC(=N)N)C(=O)N[C@@H](CCC(N)=O)C(=O)N[C@@H](C)C(=O)NCC(=O)N[C@H](C(=O)N[C@@H](CCC(N)=O)C(=O)N[C@@H](Cc1ccc(O)cc1)C(=O)O)C(C)C
Donor D481 (active TB)
  # SFU: 1715 SFU/250,000 CD8+ T cells

## CC(C)[C@H](NC(=O)[C@H](C)NC(=O)[C@H](C)NC(=O)[C@H](CCC(N)=O)NC(=O)[C@H](C)NC(=O)[C@H](C)NC(=O)[C@@H](N)[C@@H](C)O)C(=O)N[C@H](C(=O)N[C@@H](CCCNC(=N)N)C(=O)N[C@@H](Cc1ccccc1)C(=O)O)C(C)C
  # SFU: 258 SFU/250,000 CD8+ T cells

## ELPQWLSANR
  # SFU: <10 SFU/250,000 CD8+ T cells

## QTVEDEARRMW
  #SFU/250,000 CD8+ T-cells: 84

## RADEEQQQAL
  # SFU: 120 SFU/250,000 CD8+ T cells
